In data set [1] the test system is AMD ARPE-19 transmitochondrial cybrid cells. The data set can be described thus: Mitochondrial membrane potential (JC-1) assay. It is filed as cell-based, human. Conditions: AMD cybrids; fenofibrate 50 μM; compared to untreated. The method, then: Mitochondrial membrane potential (JC-1) assay: The JC-1 assay uses a unique cationic dye i.e., 5,5′,6,6′-tetrachloro-1,1′,3,3′-tetraethylbenzimidazolylcarbocyanine iodide, to detect loss of mitochondrial membrane potential. JC-1 1× reagent was prepared by diluting 100× JC-1 reagent in assay buffer to 1:100 dilutions. […] 1× JC-1 reagent was added to cells and incubated for 15 min at 37° C. JC-1 reagent in the wells was then replaced with DPBS and fluorescence was measured as follows: Red fluorescence (Live cells): Excitation 550 nm and Emission 600 nm; Green fluorescence (Apoptotic cells): Excitation 485 nm and Emission 535 nm. Ratio of Red/Green was used for analysis. Lower ratio corresponded to higher apoptotic/dead cell number.

The test system is the same in data set [2]. The data set can be described thus: MitoSOX assay (mitochondrial superoxide). It is filed as cell-based, human. Conditions: AMD cybrids, fenofibrate 50 μM. On the procedure:
MitoSOX assay: The fluorogenic MitoSOX Red dye (Cat. #M36008, Invitrogen, Grand Island, N.Y., USA) is a live-cell permeant reagent that detects mitochondrial superoxide in cells. MitoSOX Red reagent oxidized by superoxide has red fluorescence that can be quantified. AMD cybrids were plated in 24-well tissue culture plates. Stock solution of 5 mM MitoSOX reagent was diluted with HBSS (Hank's balanced salt solution) buffer to obtain a 5 μM working solution. Cells were treated with 5 μM MitoSOX reagent and incubated for 10 min at 37° C. Cells were then washed with HBSS buffer, and fluorescence was measured at excitation/emission maxima of 510/580 nm.

Data set [3] has the same test system. The data set can be described thus: CellLight Mitochondrial GFP staining and confocal microscopy. The data set is classed as cell-based, human. Conditions: fenofibrate 50 μM. On the procedure:
CellLight Mitochondrial GFP staining and Confocal microscopy: Staining with CellLight Mitochondrial GFP probe (Cat. #C10600, Thermo Fisher Scientific, MA, USA) and confocal microscopy were performed as described previously (74). Cells were plated in 4-well tissue culture chamber slides, stained with CellLight mtGFP for 24 hr and incubated overnight at 37° C. The cells were washed with 1×TBS (Tris buffered saline), fixed in paraformaldehyde and mounted in DAPI. Confocal z-stack images were captured using the LSM-700 Confocal microscope (Zeiss, Thornwood, N.Y., USA). Images were quantified using ZEN 2 lite software (Zeiss).
RPE cells were transduced with CellLight reagent which is a GFP-E1 alpha pyruvate dehydrogenase leader peptide construct with a mammalian promoter. This fluorescent baculoviral fusion construct provides precise targeting to mitochondria.

Data set [4] shares this test system. The data set can be described thus: Cell viability assay (MTT assay). Conditions: for cell viability, Mean ± SEM: AMD UN = 1. (Formazan colour is commonly taken as a measure of viable cells.)
Procedure: All cybrids used in this study belonged to the ‘H’ mitochondrial DNA haplogroup. […] Stock solutions of 20 mM kaempferol and 10 mM telmisartan were prepared in DMSO and were diluted in culture media to obtain the following working concentrations: kaempferol at 5 μM, 10 μM, and 20 μM; telmisartan at 2.5 μM, 5 μM, and 10 μM. Cell viability assay (MTT assay): The numbers of viable cells were measured using the MTT (3-(4,5-dimethylthiazol-2-yl)-2,5-diphenyltetrazolium bromide) assay. […] Cells were incubated at 37° C. for 1 h, followed by addition of DMSO. Absorbance was measured at 570 nm and background absorbance measured at 630 nm. Normalized absorbance values were obtained by subtracting background absorbance from signal absorbance. The colorimetric signal obtained was proportional to the cell number.
The test system of data set [5] is PGC-1α. The data set can be described thus: qRT-PCR gene expression of PGC-1α in AMD RPE cybrid cells. It is filed as cell-based, human. Conditions: 72 hr, AMD UN = 1. The method, then:
(§1) Quantitative Real-Time PCR: RNA extraction, cDNA synthesis, and qRT-PCR analysis were performed as described previously (73). QuantiTect Primer Assays were used to study the expression of Caspase-3 gene (Cat. #QT00023947, Qiagen, Germantown, Md.), BAX gene (Cat. #QT00031192, Qiagen), HIF1α gene (Cat. #QT00083664, Qiagen), CFH gene (Cat. #QT00001624, Qiagen), and SOD2 gene (Cat. #QT01008693, Qiagen). KiCqStart® SYBR® green primers were used to examine the expression of PGC-1a, NRF-1, NRF-2, PPAR-α, PPAR-γ, VEGF, IL-18, and IFNB1 genes (Cat. #kspq12012, Sigma, St. Louis, Mo.). Specific housekeeper genes used were HPRT1 (Cat. #QT00059066, Qiagen), ALAS variant 1 (Cat. #QT01160467, Qiagen), and HMBS (Cat. #QT00014462). TaqMan gene expression master mix (Cat. #4369016, Life Technologies) and TaqMan gene expression assays were used to examine the expression of the MT-RNR2 gene (Assay ID: Hs02596860_s1, Life Technologies), for which GAPDH (Assay ID: Hs02786624_g1, Life Technologies) was used as a housekeeper gene. Data analysis was performed using ΔΔCt method which was calculated by subtracting ΔCt of the AMD group from ΔCt of the normal group. ΔCt was the difference between the Cts (threshold cycles) of the target gene and Cts of the housekeeper gene (reference gene). Fold change was calculated using the following formula: Fold change=2^ΔΔct.
In general terms: Quantitative PCR measures a nucleic acid by following its amplification.

The test system of data set [6] is SOD2. The data set can be described thus: qRT-PCR gene expression of SOD2 in AMD RPE cybrid cells. The data set is classed as cell-based, human. Conditions: 72 hr, AMD UN = 1. On the procedure: as §1
The subject of data set [7] is Caspase-3. The data set can be described thus: qRT-PCR gene expression of Caspase-3 in AMD RPE cybrid cells. It is filed as cell-based, human. To be noted: 72 hr; for Caspase-3 gene expression, Mean ± SEM: AMD UN = 1. On the procedure: as §1
Data set [8] relates to IL-18. The data set can be described thus: qRT-PCR gene expression of IL-18 in AMD RPE cybrid cells. It is filed as cell-based, human. To be noted: 72 hr, AMD UN = 1. The method, then: as §1
The subject of data set [9] is VEGF. The data set can be described thus: qRT-PCR gene expression of VEGF in AMD RPE cybrid cells. It is filed as cell-based, human. Conditions: 72 hr; for VEGF gene expression, Mean ± SEM: AMD UN = 1. On the procedure:
as §1

Data set [10] deals with esterase. The data set can be described thus: fenofibrate to fenofibrate* conversion (first pass) and its block by esterase inhibitors. To be noted: co-administered with fenofibrate.
Where [11] appears, read: only kaempferol 20 μM, compared to untreated AMD cybrids.

As to `CC(C)OC(=O)C(C)(C)Oc1ccc(C(=O)c2ccc(Cl)cc2)cc1` [fenofibrate], in [1], the “increased mitochondrial membrane potential (JC-1 assay)” value came to 116%. Also, the “mitochondrial superoxides, MitoSOX fluorescence (mean±SEM)” value in data set [2] (AMD UN = 1) stood at 0.77±0.04. Besides, the “lower amount of mitochondrial superoxides (MitoSOX assay)” value in data set [2] (compared to untreated) was found to be 23%. Moreover, in [3] (AMD UN = 1), the “mtGFP fluorescence intensity (mean±SEM)” value is 2.73±0.39. Besides, the “increase in mtGFP fluorescence intensity” value in data set [3] (compared to untreated) is listed as 173%. For the same compound, the “cell viability, Mean ± SEM” value was found to be 1.33 ± 0.09 in [4] (48 hr, fenofibrate 50 μM only) and 1.37 ± 0.07 in data set [4] (72 hr, fenofibrate 50 μM only). In [4] (AMD cells, fenofibrate 50 μM, compared to untreated), this compound registered a higher cell viability of 51%.
`O=c1c(O)c(-c2ccc(O)cc2)oc2cc(O)cc(O)c12` [kaempferol, 3,5,7-trihydroxy-2-(4-hydroxyphenyl)-4H-1-benzopyran-4-one]: in [5] (kaempferol 20 μM only), the “PGC-1a gene expression, Mean ± SEM” value is on record as 1.82 ± 0.57. Besides, the “SOD2 gene expression, Mean ± SEM” value in data set [6] (kaempferol 20 μM only) was determined as 0.88 ± 0.22. Also, the “Caspase-3 gene expression, Mean ± SEM” value in data set [7] (kaempferol 20 μM only) is recorded as 0.74 ± 0.045. Also, the Caspase-3 downregulation in data set [7] (setting [11]) worked out at 26%. Further, the “IL-18 gene expression, Mean ± SEM” value in [8] (kaempferol 20 μM only) is 0.78 ± 0.13. In addition, the “VEGF gene expression, Mean ± SEM” value in data set [9] (kaempferol 20 μM only) is 0.42 ± 0.16. The compound further came in with a VEGF downregulation in data set [9] (setting [11]) of 58%. Besides, in data set [10], the “block of conversion of fenofibrate to fenofibrate*” value is on record as “largely block conversion to fenofibrate*”. The “cell viability, Mean ± SEM” value is recorded as 1.037 ± 0.1413 in [4] (48 hr, kaempferol 20 μM only); “did not show any difference in cell viability” in [4] (72 hr, kaempferol 20 μM only); 1.259 ± 0.1060 in [4] (72 hr, kaempferol 20 μM only, listed as kempferol).
`CCCc1nc2c(C)cc(-c3nc4ccccc4n3C)cc2n1Cc1ccc(-c2ccccc2C(=O)O)cc1` [telmisartan]: in [5] (telmisartan 10 μM only), the “PGC-1a gene expression, Mean ± SEM” value is 1.40 ± 0.48. For the same compound, the “SOD2 gene expression, Mean ± SEM” value in [6] (telmisartan 10 μM only) came to 1.71 ± 0.46. In data set [7] (telmisartan 10 μM only), the “Caspase-3 gene expression, Mean ± SEM” value came out at 0.86 ± 0.06. In data set [8] (telmisartan 10 μM only), the “IL-18 gene expression, Mean ± SEM” value is 0.71 ± 0.25. Moreover, in data set [9] (telmisartan 10 μM only), the “VEGF gene expression, Mean ± SEM” value stood at 0.52 ± 0.19. In addition, the “block of conversion of fenofibrate to fenofibrate*” value in [10] is “largely block conversion to fenofibrate*”. In addition, the “cell viability, Mean ± SEM” value in [4] (48 hr, telmisartan 10 μM only) was determined as 0.95 ± 0.11; in [4] (72 hr, telmisartan 10 μM only), 0.99 ± 0.09.
